Data taken from patent US11427606B2, “Azithromycin derivatives containing a phosphonium ion as anticancer agents” (Rising Tide Foundation, priority 2017, dated 2022).

System: MDA-231 cancer cells
Test: Inhibition of proliferation assay: cell confluence (IncuCyte imaging)
Assay type: cell-based
Details: compound at 10 uM; MDA-231 cells; IncuCyte images every 3 h over 4-5 d; relative confluence normalised to time zero
Source text: Inhibition of Proliferation Assay
The confluence value is a surrogate for cell proliferation and growth. The value is expressed as a percent confluence, which represents the fraction of culture dish-surface that is occupied by cells. As the number of cells in the dish increases over time due to proliferation, so will their coverage of that surface increase. Expansion of the cell population on the cell culture-dish surface and confluence have mostly a linear relationship until the cells on the plate surface begin to reach saturation or maximum density.
Confluence is determined based on image analysis. Image based software can identify objects in the image field base on changes to pixel density in a grey scale image. The software can then assign a mask to those pixels within the object. Objects can be ‘gated’ out based on size and shape. To determine cell confluence, images of cells are first masked as objects. The surface area of the image that is masked is measured and compared to the total surface area of the culture dish surface to obtain a percent confluence.
MDA-231 cancer cells were obtained from ATCC. Cells were cultured in Dulbecco's Modified Eagle Medium (DMEM) supplemented with 10% Fetal Bovine Serum (FBS), 2 mM Glutamax, 1 mM Non Essential Amino Acid (NEAA) solution and 1 mM sodium pyruvate. […] Final DMSO concentrations were […]. Images were acquired with an IncuCyte Live Cell Imaging microscopy (Essen Bioscience) at every 3 h under cell culture conditions with 10× objective over 4-5 d. Cell confluence was calculated from one field of view per well using the IncuCyte in-built algorithm. Relative confluence values were obtained by normalising each value to the time zero value in each sample.

Row | Compound | % Confluence [%]
1 | CC[C@H]1OC(=O)[C@H](C)[C@@H](O[C@H]2C[C@@](C)(OC)[C@@H](O)[C@H](C)O2)[C@H](C)[C@@H](O[C@@H]2O[C@H](C)C[C@H](N(C)C)[C@H]2O)[C@](C)(O)C[C@@H](C)CN(CCCCCCCCCC[P+](c2ccc(OC)cc2)(c2ccc(OC)cc2)c2ccc(OC)cc2)[C@H](C)[C@@H](O)[C@]1(C)O.[I-] [Example 15] | 16.6
2 | CC[C@H]1OC(=O)[C@H](C)[C@@H](O[C@H]2C[C@@](C)(OC)[C@@H](O)[C@H](C)O2)[C@H](C)[C@@H](O[C@@H]2O[C@H](C)C[C@H](N(C)C)[C@H]2O)[C@](C)(O)C[C@@H](C)CN(C(=O)CCCCCCC[P+](c2cc(C)cc(C)c2)(c2cc(C)cc(C)c2)c2cc(C)cc(C)c2)[C@H](C)[C@@H](O)[C@]1(C)O [Example 16, {8-[(2R,3S,4R,5R,8R,10R,11R,12S,13S,14R)-11-{[(2S,3R,4S,6R)-4-(dimethylamino)-3-hydroxy-6-methyloxan-2-yl]oxy}-2-ethyl-3,4,10-trihydroxy-13-{[(2R,4R,5S,6S)-5-hydroxy-4-methoxy-4,6-dimethyloxan-2-yl]oxy}-3,5,8,10,12,14-hexamethyl-15-oxo-1-oxa-6-azacyclopentadecan-6-yl]-8-oxooctyl}tris(3,5-dimethylphenyl)phosphonium hexafluorophosphate(V)] | 10
3 | CC[C@H]1OC(=O)[C@H](C)[C@@H](O[C@H]2C[C@@](C)(OC)[C@@H](O)[C@H](C)O2)[C@H](C)[C@@H](O[C@@H]2O[C@H](C)C[C@H](N(C)C)[C@H]2O)[C@](C)(O)C[C@@H](C)CN(C(=O)CCCCCCC[P+](c2ccccc2)(c2ccccc2)c2ccccc2CN(C)C)[C@H](C)[C@@H](O)[C@]1(C)O [Example 17, {8-[(2R,3S,4R,5R,8R,10R,11R,12S,13S,14R)-11-{[(2S,3R,4S,6R)-4-(dimethylamino)-3-hydroxy-6-methyloxan-2-yl]oxy}-2-ethyl-3,4,10-trihydroxy-13-{[(2R,4R,5S,6S)-5-hydroxy-4-methoxy-4,6-dimethyloxan-2-yl]oxy}-3,5,8,10,12,14-hexamethyl-15-oxo-1-oxa-6-azacyclopentadecan-6-yl]-8-oxooctyl}({2-[(dimethylamino)methyl]phenyl})diphenylphosphonium hexafluorophosphate(V)] | 93.1
4 | CC[C@H]1OC(=O)[C@H](C)[C@@H](O[C@H]2C[C@@](C)(OC)[C@@H](O)[C@H](C)O2)[C@H](C)[C@@H](O[C@@H]2O[C@H](C)C[C@H](N(C)C)[C@H]2O)[C@](C)(O)C[C@@H](C)CN(C(=O)CCCCCCC[P+](c2ccccc2)(c2ccccc2)c2ccccc2-c2ccccc2)[C@H](C)[C@@H](O)[C@]1(C)O [Example 18, {[1,1′-biphenyl]-2-yl}({8-[(2R,3S,4R,5R,8R,10R,11R,12S,13S,14R)-11-{[(2S,3R,4S,6R)-4-(dimethylamino)-3-hydroxy-6-methyloxan-2-yl]oxy}-2-ethyl-3,4,10-trihydroxy-13-{[(2R,4R,5S,6S)-5-hydroxy-4-methoxy-4,6-dimethyloxan-2-yl]oxy}-3,5,8,10,12,14-hexamethyl-15-oxo-1-oxa-6-azacyclopentadecan-6-yl]-8-oxooctyl})diphenylphosphonium hexafluorophosphate(V)] | 7.7
5 | CC[C@H]1OC(=O)[C@H](C)[C@@H](O[C@H]2C[C@@](C)(OC)[C@@H](O)[C@H](C)O2)[C@H](C)[C@@H](O[C@@H]2O[C@H](C)C[C@H](N(C)C)[C@H]2O)[C@](C)(O)C[C@@H](C)CN(C(=O)CCCCCCC[P+](c2ccccc2)(c2ccccc2)c2ccc(N(C)C)cc2)[C@H](C)[C@@H](O)[C@]1(C)O [Example 19, {8-[(2R,3S,4R,5R,8R,10R,11R,12S,13S,14R)-11-{[(2S,3R,4S,6R)-4-(dimethylamino)-3-hydroxy-6-methyloxan-2-yl]oxy}-2-ethyl-3,4,10-trihydroxy-13-{[(2R,4R,5S,6S)-5-hydroxy-4-methoxy-4,6-dimethyloxan-2-yl]oxy}-3,5,8,10,12,14-hexamethyl-15-oxo-1-oxa-6-azacyclopentadecan-6-yl]-8-oxooctyl}[4-(dimethylamino)phenyl]diphenylphosphonium hexafluorophosphate(V)] | 10.5
6 | CC[C@H]1OC(=O)[C@H](C)[C@@H](O)[C@H](C)[C@@H](O[C@@H]2O[C@H](C)C[C@H](N(C)C)[C@H]2O)[C@](C)(O)C[C@@H](C)CN(CCCCCCCC[P+](c2ccc(OC)cc2)(c2ccc(OC)cc2)c2ccc(OC)cc2)[C@H](C)[C@@H](O)[C@]1(C)O [Example 20] | 14.8
7 | CC[C@H]1OC(=O)[C@H](C)[C@@H](O)[C@H](C)[C@@H](O[C@@H]2O[C@H](C)C[C@H](N(C)C)[C@H]2O)[C@](C)(O)C[C@@H](C)CN(CCCCCCCC[P+](c2ccccc2)(c2ccccc2)c2ccc(N(C)C)cc2)[C@H](C)[C@@H](O)[C@]1(C)O.[I-] [Example 21] | 89.9
8 | CC[C@H]1OC(=O)[C@H](C)[C@@H](O[C@H]2C[C@@](C)(OC)[C@@H](O)[C@H](C)O2)[C@H](C)[C@@H](O[C@@H]2O[C@H](C)C[C@H](N(C)C)[C@H]2O)[C@](C)(O)C[C@@H](C)CN(C(=O)CCCCCCCCCCC[P+](C)(c2ccccc2)c2ccccc2)[C@H](C)[C@@H](O)[C@]1(C)O.[Cl-] [Example 22, {12-[(2R,3S,4R,5R,8R,10R,11R,12S,13S,14R)-11-{[(2S,3R,4S,6R)-4-(dimethylamino)-3-hydroxy-6-methyloxan-2-yl]oxy}-2-ethyl-3,4,10-trihydroxy-13-{[(2R,4R,5S,6S)-5-hydroxy-4-methoxy-4,6-dimethyloxan-2-yl]oxy}-3,5,8,10,12,14-hexamethyl-15-oxo-1-oxa-6-azacyclopentadecan-6-yl]-12-oxododecyl}(methyl)diphenylphosphonium chloride] | 137
9 | CC[C@H]1OC(=O)[C@H](C)[C@@H](O[C@H]2C[C@@](C)(OC)[C@@H](O)[C@H](C)O2)[C@H](C)[C@@H](O[C@@H]2O[C@H](C)C[C@H](N(C)C)[C@H]2O)[C@](C)(O)C[C@@H](C)CN(C(=O)CCCCCCCCCCC[PH](C)(C)c2ccccc2)[C@H](C)[C@@H](O)[C@]1(C)O [Example 23, {12-[(2R,3S,4R,5R,8R,10R,11R,12S,13S,14R)-11-{[(2S,3R,4S,6R)-4-(dimethylamino)-3-hydroxy-6-methyloxan-2-yl]oxy}-2-ethyl-3,4,10-trihydroxy-13-{[(2R,4R,5S,6S)-5-hydroxy-4-methoxy-4,6-dimethyloxan-2-yl]oxy}-3,5,8,10,12,14-hexamethyl-15-oxo-1-oxa-6-azacyclopentadecan-6-yl]-12-oxododecyl}dimethylphenylphosphonium chloride] | 7.5
10 | CC[C@H]1OC(=O)[C@H](C)[C@@H](O[C@H]2C[C@@](C)(OC)[C@@H](O)[C@H](C)O2)[C@H](C)[C@@H](O[C@@H]2O[C@H](C)C[C@H](N(C)C)[C@H]2O)[C@](C)(O)C[C@@H](C)CN(C(=O)CCCCCCCCCCC[P+](C)(C)C)[C@H](C)[C@@H](O)[C@]1(C)O.[Cl-] [Example 24, {12-[(2R,3S,4R,5R,8R,10R,11R,12S,13S,14R)-11-{[(2S,3R,4S,6R)-4-(dimethylamino)-3-hydroxy-6-methyloxan-2-yl]oxy}-2-ethyl-3,4,10-trihydroxy-13-{[(2R,4R,5S,6S)-5-hydroxy-4-methoxy-4,6-dimethyloxan-2-yl]oxy}-3,5,8,10,12,14-hexamethyl-15-oxo-1-oxa-6-azacyclopentadecan-6-yl]-12-oxododecyl}trimethylphosphonium chloride] | 140
11 | CC[C@H]1OC(=O)[C@H](C)[C@@H](O[C@H]2C[C@@](C)(OC)[C@@H](O)[C@H](C)O2)[C@H](C)[C@@H](O[C@@H]2O[C@H](C)C[C@H](N(C)C)[C@H]2O)[C@](C)(O)C[C@@H](C)CN(C(=O)CCCCCCC[P+](C)(C)C)[C@H](C)[C@@H](O)[C@]1(C)O.[Cl-] [Example 25, {8-[(2R,3S,4R,5R,8R,10R,11R,12S,13S,14R)-11-{[(2S,3R,4S,6R)-4-(dimethylamino)-3-hydroxy-6-methyloxan-2-yl]oxy}-2-ethyl-3,4,10-trihydroxy-13-{[(2R,4R,5S,6S)-5-hydroxy-4-methoxy-4,6-dimethyloxan-2-yl]oxy}-3,5,8,10,12,14-hexamethyl-15-oxo-1-oxa-6-azacyclopentadecan-6-yl]-8-oxooctyl}trimethylphosphonium chloride] | 124
12 | CC[C@H]1OC(=O)[C@H](C)[C@@H](O[C@H]2C[C@@](C)(OC)[C@@H](O)[C@H](C)O2)[C@H](C)[C@@H](O[C@@H]2O[C@H](C)C[C@H](N(C)C)[C@H]2O)[C@](C)(O)C[C@@H](C)CN(C(=O)CCCCCCC[P+](c2ccccc2)(c2ccccc2)c2cnn(C)c2)[C@H](C)[C@@H](O)[C@]1(C)O.[Cl-] [Example 27, {8-[(2R,3S,4R,5R,8R,10R,11R,12S,13S,14R)-11-{[(2S,3R,4S,6R)-4-(dimethylamino)-3-hydroxy-6-methyloxan-2-yl]oxy}-2-ethyl-3,4,10-trihydroxy-13-{[(2R,4R,5S,6S)-5-hydroxy-4-methoxy-4,6-dimethyloxan-2-yl]oxy}-3,5,8,10,12,14-hexamethyl-15-oxo-1-oxa-6-azacyclopentadecan-6-yl]-8-oxooctyl}(1-methyl-1H-pyrazol-4-yl)diphenylphosphonium chloride] | 123
